According to patent US20260174858A1, “TARGETING THE m6A MRNA DEMETHYLASE FTO” (University of Virginia Patent Foundation, priority 2022, published 2026):

Test system: Human RPE cell line, ARPE-19
Assay: TGF-β1-induced fibrotic response in ARPE-19 (immunoblotting, immunofluorescence)
Format: cell-based
Details: FTOi pretreatment at indicated concentrations, TGF-β1 10 ng/ml 12 hours
Method: Cells and tissues were homogenized in RIPA buffer (R0278, Sigma) with protease and phosphatase inhibitors (A32959, Thermo Scientific). Protein concentration was determined with a Pierce BCA Protein Assay Kit (23225, Thermo Scientific). Equal quantities of protein boiled in LDS Sample Buffer (NP0007, Thermo Scientific) were resolved by Novex Tris-glycine gels (Invitrogen) and transferred onto LF PVDF membranes (1704274, Bio-Rad). The transferred membranes were blocked with Blocking Buffer (927-40000, LI-COR) and incubated with the following primary antibodies: anti-FTO pAb (AdipoGen Life Sciences, AG-25A-0089-C100, USA), anti-GAPDH mAb (Cell Signaling Technology, 97166), anti-F4/80 (Santa Cruz Biotechnology, sc-25830). The signal was visualized with species-specific secondary antibodies conjugated with IRDye and Odyssey® CLx Imaging System.

Cc1noc(C)c1-c1cc(Cl)c(Nc2ccccc2C(=O)NO)c(Cl)c1 [FB23-2]
Fibrotic response (αSMA, fibronectin): suppress the fibrotic response
